Reference: patent US20110021542A1, “Use of a Combination of Udenafil and Alfuzosin or Oxybutynin for the Treatment of Overactive Bladder” (PELVIPHARM, priority 2008, published 2011)

Test system: carbachol precontracted human bladder strips
Assay: Relaxation of carbachol-precontracted human detrusor strips
Assay type: tissue-based
Conditions: carbachol 10^-6 M precontraction; cumulative 10^-9 to 3.10^-5 M; compared with tadalafil, sildenafil, vardenafil; FIG. 1
Experimental: The experiments, collection and use of any tissue or other samples were carried out in accordance with the Research Plan, all relevant laws, regulations and codes of practice, including having obtaining informed consent of patients in writing. Bladders were obtained from donors undergoing cystectomy for infiltrating bladder cancer with no known bladder dysfunction according to their medical chart. In accordance with French legislation, human tissue samples were obtained with patient informed consent and after hepatitis and HIV serologies determination. After surgical procedure, bladder samples were immediately transported from the operating room to the pathologist facilities where a normal piece of the bladder dome, i.e. with no macroscopic tumoral tissue, was selected for experiments by the pathologist. […] The strips were connected to force transducers (Pioden Controls Ltd, UK) and following amplification, the tension changes were recorded via MacLab™/8 using Chart™ 5 software (AD Instruments Ltd). […] For the evaluation of the effect of drugs to inhibit carbachol-induced contractions, relaxations in response to increasing and cumulative concentrations of PDE5 inhibitors or oxybutynin or corresponding concentrations of vehicle are expressed as the percentage of inhibition of the contractile response to carbachol. […]

Q: For `CCCOc1ccc(S(=O)(=O)NCCC2CCCN2C)cc1-c1nc2c(CCC)nn(C)c2c(=O)[nH]1` (stereo not shown) [Udenafil, 5-[2-propyloxy-5-(1-methyl-2-pyrrolidinylethylamidosulfonyl)phenyl]-methyl-3-propyl-1,6-dihydro-7H-pyrazolo(4,3-d)pyrimidine-7-one], which “inhibitory effect to relax carbachol-induced contractions of human bladder strips” value is on record?
A: greater inhibitory effect than the other PDE-5 inhibitors tested
